# According to patent US20060286167A1, “Compositions and methods for the treatment of neurodegenerative diseases” (priority 2005, published 2006):
# Structures can show the parent of a compound that is named as a salt.
# Test system: SMN protein in SMA patient fibroblasts (GM03813)
# Assay: SMN cytoblot assay (SMN protein levels in SMA patient fibroblasts)
# Type: cell-based, human
# Details: not given
# Text: One method for monitoring SMN protein levels in cells is through use of a cytoblot assay, in which cells are fixed and probed with an antibody against a target protein of interest. We have used a cytoblot assay to determine the concentration of SMN protein in SMA patient fibroblasts, and have identified small molecules that increase SMN protein concentration.
# Using the cytoblot assay, we can clearly distinguish SMN protein levels in patient (GM03813) versus carrier fibroblast cells (GM03814), as shown in the FIGS. 1A and 1B.
# • 1. Plate 50 μl per well of 300,000 cells/ml (15,000 cells per well) into Nunc white 384-well opaque-bottomed plates. • 2. Incubate plates at 37° C., 5% CO2 overnight. Day 2 • 1. Aspirate media from wells using Tecan plate washer. • 2. Fix cells by adding 20 μl/well of cold methanol (kept in −20° C. freezer). • 3. Incubate plates in 4° C. refrigerator for 10 minutes. • 4. Aspirate methanol using Tecan plate washer. • 5. Add 50 μl/well of primary Ab solution, (BD anti-SMN Ab diluted to 125 ng/ml in 10% fetal goat serum PBST), using multi-drop. • 6. Seal plates and incubate overnight at room temperature. Day 3 • 1. After 16-20 hrs incubation, wash plates with PBST 2× using Tecan plate washer. • 2. Add 50 μl of secondary Ab solution, (Santa Cruz goat anti-Mouse-HRP diluted to 67 ng/ml in 10% fetal goat serum PBST). • 3. Seal plates and incubate 2 hrs at room temperature. • 4. Wash plates with PBST 2× using Tecan plate washer. • 5. Add 50 μl/well 10% fetal goat serum PBST. • 6. Incubate in 4° C. refrigerator for 10 minutes. • 7. Aspirate plates using plate washer and add ECL luminescence solution, 20 μl/well. • 8. Measure luminescence on plate reader. Automated Scoring
# We scored each compound based on the maximum signal-to-noise ratio (SNR) found among its dose curves. These scores are based on edge-corrected SMN data, using only plates that passed quality control. The untreated level on each plate was found by taking the median of the untreated wells, and for each treated well we calculated a log(T/U) ratio. Each curve was generated in triplicate on each plate, so each point on a compound's dose curve was obtained by determining the median for the replicate points. Each ratio thus has an error estimate from the scatter between the triplicate data points (1.5 times the median absolute deviation from the median). For each dose curve, we calculated the SNR for each data point log(T/U)/error, and chose the maximum point as our indicator of SMN induction activity. Since this is a signal-to-noise score, scores much greater than one indicate significant activity, assuming normal statistics. We decided to use a cutoff signal-to-noise ratio of 6. This selection represents a considerable enrichment towards visually-selected compounds. We identified 100 out of 2000 compounds producing scores >6. This included 13 of the 28 visual selections.
row,Molecule,SNR
1,O=S(=O)([O-])[O-].[Mn+2] [Manganese Sulfate],10.3
2,C1CNCCN1.O=C(O)CC(O)(CC(=O)O)C(=O)O [Piperazine Citrate],6.68

# Same assay, conditions: maximum signal-to-noise ratio log(T/U)/error among a compound's dose curves, SMN cytoblot; cutoff 6; column Scoring says Automated or Visual selection
row,Molecule,SNR
1,NC[C@@H]1O[C@H](O[C@H]2[C@@H](O)[C@H](O[C@@H]3[C@@H](O)[C@H](N)C[C@H](N)[C@H]3O[C@H]3O[C@H](CN)[C@@H](O)[C@H](O)[C@H]3N)O[C@@H]2CO)[C@H](N)[C@@H](O)[C@@H]1O [Framycetin],13.3
2,CN(C)C(=O)Oc1ccc[n+](C)c1 [Pyridostigmine Bromide],6.19
3,CNCCNS(=O)(=O)c1cccc2cnccc12 [H-8],9.52
4,CCCCCC/C=C\CCCCCCCC(=O)OC [Methyl Palmitoleate],9.63
5,CC(O)CN1CCN(CC(=O)[O-])CCN(CC(=O)[O-])CCN(CC(=O)[O-])CC1.[Gd+3] (centres unmarked) [Gadoteridol],6.54
6,CS(=O)(=O)OCCCCOS(C)(=O)=O [Busulfan],17.4
7,NC[C@@H]1O[C@H](O[C@H]2[C@@H](O)[C@H](O[C@@H]3[C@@H](O)[C@H](N)C[C@H](N)[C@H]3O[C@H]3O[C@H](CO)[C@@H](O)[C@H](O)[C@H]3N)O[C@@H]2CO)[C@H](N)[C@@H](O)[C@@H]1O [Paromomycin Sulfate],11
8,CC(=O)OCC(=O)[C@H]1CC[C@H]2[C@@H]3CCC4=CC(=O)CC[C@]4(C)[C@H]3CC[C@]12C [Desoxycorticosterone Acetate],7.41
9,CCCCC(CC)COC(=O)/C=C/C(=O)OCC(CC)CCCC (centres unmarked) [Bis(2-Ethlyhexyl) Fumarate],7.33
10,CCn1nc(C(=O)O)c(=O)c2cc3c(cc21)OCO3 [Cinoxacin],6
11,CCc1cc(C(N)=S)ccn1 [Ethionamide],14
12,CCCCC/C=C\C/C=C\CCCCCCCC(=O)OC [Methyl Linoleate],10.1
13,CN(C)c1nc(N(C)C)nc(N(C)C)n1 [Altretamine],10.2
14,CC(Cc1cccc(C(F)(F)F)c1)NCCOC(=O)c1ccccc1 (centres unmarked) [Benfluorex Hydrochloride],7.11
15,CC(=O)Nc1c(I)cc(I)c(C(=O)O)c1I [Acetrizoate Sodium],12.8
16,CC1CCC(C(C)C)C(O)C1 (centres unmarked) [Menthol],7.87
17,NCC[C@H](O)C(=O)N[C@@H]1C[C@H](N)[C@@H](O[C@H]2O[C@H](CN)[C@@H](O)[C@H](O)[C@H]2O)[C@H](O)[C@H]1O[C@H]1O[C@H](CO)[C@@H](O)[C@H](N)[C@H]1O.O=S(=O)(O)O.O=S(=O)(O)O [Amikacin Sulfate],7.7
18,Chymopapain,6.83
